Common to all, as to assay: DTP human tumour cell line panel, 48 h
The test system of assay [1] is TK-10 renal.
Assay [2] concerns SK-MEL-5 melanoma.
The subject of assay [3] is HOP-62 NSCLC.
The subject of assay [4] is OVCAR-3 ovarian.
Assay [5] concerns U251 CNS.
Assay [6] concerns MCF7 breast.
Assay [7] relates to DU-145 prostate.
In assay [8] the test system is SK-MEL-28 melanoma.
Assay [9] deals with MALME-3M melanoma.
Assay [10] deals with LOX IMVI melanoma.
Assay [11] has as its system SF-539 CNS.
Assay [12] deals with RXF 393 renal.
Assay [13] concerns M14 melanoma.
For assay [14], the system named is MDA-MB-231 breast.
In assay [15] the test system is HOP-92 NSCLC.
Assay [16] deals with OVCAR-5 ovarian.
Assay [17] concerns HCT-116 colon.
For assay [18], the system named is RPMI-8226 leukemia.
Assay [19] concerns BT-549 breast.
Assay [20] has as its system UACC-257 melanoma.

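Values below derive from 48-hour exposures of cells grown in 96-well plates, with endpoints linearly interpolated between the two concentrations bracketing the appropriate inhibition level. TGI: concentration producing complete growth inhibition.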

The TGI is the concentration giving total growth inhibition. A lower TGI goes with greater sensitivity of the cells. Take `COc1cc(CN2CCCCC2)cc2cc(C(=O)O)c(=O)oc12`: the TGI in assay [1], in assay [2], in assay [3], in assay [4], in [5] and in assay [6] was above 100 µM in each case. In addition, the TGI in assay [7], in assay [8], in [9], in assay [10], in assay [11] and in [12] was above 100 µM in each case. Besides, the concentration for total growth inhibition (TGI) in [13], in [14], in [15], in [16], in assay [17] and in [18] was above 100 µM each time. The TGI in assay [19] and in assay [20] was above 100 µM each time.
Take `CCCCc1ccc(Nc2nc3c(ncn3COCCO)c(=O)[nH]2)cc1`: the TGI in [1], in assay [2], in assay [3], in assay [4], in assay [5] and in assay [6] was above 100 µM throughout. Besides, the concentration for total growth inhibition (TGI) in assay [7], in assay [9], in assay [10], in [11], in assay [12] and in [13] was above 100 µM in each case. Moreover, the TGI in assay [14], in assay [15], in assay [16], in assay [17], in assay [18] and in [19] was above 100 µM in each case. Further, the concentration for total growth inhibition (TGI) in assay [20] was above 100 µM.
As for `C=C1CC(C)(c2ccc(Nc3nc4ccccc4c4occc34)cc2)OC1=O` (stereo not given), the TGI in assay [1] was 16.7 µM; in assay [2], 19.6 µM; in assay [3], 34 µM; in assay [4], 12.9 µM; in assay [5], 38.9 µM; in assay [6], above 100 µM. For the same compound, the TGI in [7] was 28.4 µM; in [8], 27.4 µM; in assay [9], 43.4 µM; in assay [11], 4.5 µM; in assay [12], 4.92 µM; in assay [13] it was 4.73 µM. Besides, the TGI is 6.35 µM in assay [14]; 12.6 µM in assay [15]; 30.6 µM in [16]; 4.47 µM in assay [18]; 7.02 µM in assay [19]; 0.164 µM in assay [20].
Regarding `CC(C)(C)c1cc(/C=C(\C#N)C(=O)NCCO)cc(C(C)(C)C)c1O`, the TGI in assay [1] was 60.9 µM; in assay [2], 28.1 µM; in assay [3] it was 49.6 µM; in [4] it was 33.5 µM; in assay [5] it was 39.9 µM; in [6] it was 93.5 µM. Besides, the TGI is above 100 µM in [7]; 47.1 µM in [8]; 61.9 µM in assay [9]; 53.9 µM in assay [10]; 38.3 µM in assay [11]; 57.6 µM in [12]. Besides, the concentration for total growth inhibition (TGI) is 31.8 µM in [13]; 43.9 µM in assay [14]; above 100 µM in assay [15]; 62.8 µM in [16]; 32.7 µM in assay [17]; 35.6 µM in assay [18]. The TGI in assay [19] turned out to be 71.1 µM; in assay [20], 35 µM.
Regarding `Clc1ccc(OCc2nnc(CCCCCCCCc3nnc(COc4ccc(Cl)cc4)n3Nc3ccccc3)n2Nc2ccccc2)cc1`, the TGI in assay [1] was above 100 µM; in assay [2] it was 2.72 µM; in assay [3] it was above 100 µM; in assay [4] it was 39.9 µM; in assay [5] it was above 87.4 µM; in assay [6], above 100 µM. The concentration for total growth inhibition (TGI) is above 80.9 µM in [7]; above 100 µM in assay [8]; above 65.6 µM in assay [9]; 42.6 µM in assay [10]; 40.1 µM in assay [11]; 70.8 µM in [12]. Besides, the TGI in assay [13] is above 38.3 µM; in assay [14], above 100 µM; in [15], 77 µM; in [16], above 100 µM; in assay [17], 24.2 µM; in assay [18], 5.13 µM. Besides, the TGI is 97.5 µM in [19] and above 100 µM in assay [20].
As to `O=C(CSc1n[nH]c(=O)[nH]c1=O)NNC(=O)c1cccc2nc3ccccc3nc12`, the total growth inhibition concentration (TGI) in assay [1] is above 100 µM; in assay [2], 45 µM; in assay [3], above 100 µM; in assay [4] it was above 100 µM; in assay [5] it was above 100 µM; in assay [6] it was above 100 µM. Moreover, the TGI in assay [7] was above 100 µM; in assay [8], above 100 µM; in [9], 87.8 µM; in assay [10] it was above 100 µM; in assay [11] it was above 100 µM; in assay [12], above 100 µM. Besides, the TGI in [13], in assay [14], in [15], in assay [16], in [17] and in assay [18] was above 100 µM throughout. Also, the figures for the TGI in [19] and in [20] were 83.7 µM and above 100 µM, respectively.
With `CSc1nc2c(c(=O)n1C)N=C(c1ccccc1)[C@H](C(CC(=O)c1ccccc1)c1ccccc1)C(c1ccccc1)N2` (stereo not given in full), the TGI in assay [2], in assay [3], in assay [4], in [5], in [6] and in assay [7] was above 100 µM each time. The TGI in assay [8], in assay [9], in [10], in assay [11], in [12] and in assay [13] was above 100 µM throughout. Besides, the TGI in [14], in assay [15], in [16], in assay [17], in assay [18] and in assay [19] was above 100 µM each time. For the same compound, the concentration for total growth inhibition (TGI) in assay [20] was above 100 µM.
Regarding `Cc1c2ncccc2cc2oc3ccccc3c(=O)c12`, the concentration for total growth inhibition (TGI) in assay [1], in assay [2], in assay [3], in assay [4], in assay [6] and in assay [7] was above 100 µM in each case. Also, the TGI in assay [8], in assay [9], in assay [10], in [11], in [12] and in assay [14] was above 100 µM in each case. For the same compound, the TGI in assay [15] was 92.7 µM; in assay [16], 59.7 µM; in [17] it was above 100 µM; in assay [18] it was above 100 µM; in assay [19], above 100 µM; in [20], above 100 µM.
Consider `CC1(C)CNC(=O)C2(C=NC(C)(C)CNC(=O)C3(C=N1)CCCO3)CCCO2` (stereo not given), for which the concentration for total growth inhibition (TGI) in assay [1], in assay [2], in [3], in assay [4], in assay [5] and in [6] was above 10 µM in each case. Also, the total growth inhibition concentration (TGI) in [7], in assay [8], in assay [9], in assay [11], in [12] and in [13] was above 10 µM in each case. Also, the TGI in assay [14], in [15], in assay [17], in [18], in assay [19] and in assay [20] was above 10 µM throughout.
For `O=C1C=C(c2ccccc2)O/C1=C/C(=O)c1ccc(Cl)cc1`, the TGI came out at 35.3 µM in assay [1]; 44.2 µM in assay [2]; 85.3 µM in assay [3]; 31.9 µM in [4]; 29.1 µM in assay [5]; 30.1 µM in assay [6]. The TGI in assay [7] is above 100 µM; in assay [8], 32.9 µM; in assay [9], 36 µM; in assay [10], 26.1 µM; in assay [11], 43.4 µM; in assay [12], 34.7 µM. Besides, the TGI in assay [13] worked out at 40.3 µM; in assay [14], 31.2 µM; in assay [15] it was 44.9 µM; in [16], 43.3 µM; in [17], 30.6 µM; in [18] it was 25.9 µM. The TGI in assay [19] was 30.1 µM; in assay [20] it was 35.6 µM.
With `O=C(Nc1ccccc1C(=O)NCCCO)/C(=C/c1ccccc1O)NC(=O)c1ccccc1`, the TGI was above 100 µM in assay [1]; above 100 µM in assay [2]; above 56.5 µM in assay [3]; above 100 µM in [4]; above 81.6 µM in assay [5]; above 100 µM in assay [6]. The TGI is above 100 µM in assay [7]; above 100 µM in assay [8]; above 100 µM in assay [9]; above 100 µM in assay [10]; above 63.2 µM in assay [11]; above 86.8 µM in assay [12]. Besides, the TGI in assay [13] was above 100 µM; in [14], above 59.3 µM; in assay [15], above 100 µM; in assay [16] it was above 100 µM; in assay [17], above 75.8 µM; in [18], above 100 µM. Moreover, the TGI in [19] is 55.7 µM; in assay [20] it was above 100 µM.
In the case of `N#Cc1cc2c(cc1Cl)Sc1nccn1S2(=O)=O`, the total growth inhibition concentration (TGI) in assay [1] was 28 µM; in [2] it was 22.6 µM; in assay [3], 10.8 µM; in assay [4] it was 2.13 µM; in assay [5] it was 3.21 µM; in [6] it was above 23.4 µM. Also, the TGI in assay [7] came out at 6.18 µM; in assay [8], 7.33 µM; in [9], 22.2 µM; in assay [10], 3.19 µM; in assay [11] it was 12.2 µM; in assay [12], 15.5 µM. Further, the TGI in assay [13] is 4.02 µM; in assay [14] it was 12.4 µM; in assay [15], 15.3 µM; in [16], 27.4 µM; in assay [17], 4.03 µM; in assay [18], 20.8 µM. Moreover, the TGI in assay [19] is 13 µM; in [20] it was 5.81 µM.
Consider `CC1(C)C=C(S(=O)(=O)c2ccccc2)Oc2ccccc2O1`, for which the TGI is 36 µM in [1]; 28.9 µM in assay [2]; above 100 µM in assay [3]; above 100 µM in [4]; above 100 µM in assay [5]; above 100 µM in assay [6]. The TGI is above 100 µM in assay [7]; above 100 µM in assay [8]; 75.2 µM in assay [9]; 57.6 µM in assay [10]; above 100 µM in assay [11]; above 100 µM in assay [12]. For the same compound, the TGI is above 100 µM in assay [13]; above 100 µM in [14]; 67.5 µM in [15]; above 100 µM in assay [16]; above 100 µM in assay [17]; above 100 µM in [18]. Also, the TGI in assay [19] and in assay [20] was above 100 µM throughout.
On to `CN(C)S(=O)(=O)Nc1nnc(S(N)(=O)=O)s1`, for which the TGI in assay [1], in assay [2], in assay [3], in assay [4], in [5] and in assay [6] was above 100 µM throughout. Further, the total growth inhibition concentration (TGI) in assay [7], in assay [8], in assay [9], in assay [11], in assay [12] and in [13] was above 100 µM each time. Besides, the TGI in [14], in assay [15], in assay [16], in assay [17], in assay [18] and in assay [19] was above 100 µM throughout.

(Values after PubChem BioAssay (NCI).)
